From patent US8722849B2, “Polypeptides” (Novo Nordisk A/S, priority 2011, dated 2014)
Starred links: 1 amine or outer side, 2 acyl side, 3 side chain; linkers in the order of their positions; H or OH if unused. Positions of bridges follow the written chain, without caps; N, C: chain ends. Residues, ends and D or L forms follow the SMILES beside them. Groups on a side chain read outwards from the residue. *: point of attachment. C20 diacid = O=C(O)CCCCCCCCCCCCCCCCCCC(=O)*; C18 diacid = O=C(O)CCCCCCCCCCCCCCCCC(=O)*; γGlu = O=C(O)[C@H](CCC(=O)[*:2])N[*:1]; AEEA = NCCOCCOCC(=O)O

What was measured:
[1] = target: T1, human amylin receptor (amylin 3(a) receptor: human calcitonin receptor + RAMP-3) (Homo sapiens, UniProt O60896+P30988); assay: Assay (II)a functional CRE-luciferase assay, human amylin receptor; assay type: cell-based; details: Table 2; BHK amylin 3(a)-receptor/CRE-luc cells
T1 construct: expressed in transfected cells; host or cells: BHK570
T1 sequence (P30988 25-474): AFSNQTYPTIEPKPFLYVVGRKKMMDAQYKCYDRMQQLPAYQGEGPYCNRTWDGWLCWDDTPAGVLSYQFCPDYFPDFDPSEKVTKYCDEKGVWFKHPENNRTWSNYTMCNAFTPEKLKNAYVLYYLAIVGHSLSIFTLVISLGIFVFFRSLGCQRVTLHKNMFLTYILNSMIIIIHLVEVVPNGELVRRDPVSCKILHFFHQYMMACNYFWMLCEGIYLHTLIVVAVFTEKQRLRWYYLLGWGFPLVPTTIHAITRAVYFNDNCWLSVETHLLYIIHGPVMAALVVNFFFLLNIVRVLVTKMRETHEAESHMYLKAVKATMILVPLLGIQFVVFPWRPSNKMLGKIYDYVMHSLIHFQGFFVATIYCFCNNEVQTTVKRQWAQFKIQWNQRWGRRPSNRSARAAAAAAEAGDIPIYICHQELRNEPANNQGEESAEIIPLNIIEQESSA
T1 sequence (O60896 24-148 partner): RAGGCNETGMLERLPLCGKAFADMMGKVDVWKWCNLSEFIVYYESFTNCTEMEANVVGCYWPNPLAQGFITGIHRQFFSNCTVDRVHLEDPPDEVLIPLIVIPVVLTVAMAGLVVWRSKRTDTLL

[2] = Assay (III) ThT fibrillation assay for physical stability; assay type: physicochemical
Summary of the method: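 Freshly prepared formulations, pH-adjusted, with 1 μM ThT; four or eight replicates incubated at 37 °C under 960 rpm orbital shaking. Fluorescence (ex 444/em 485 nm) read every 20 min; […]. Peptide concentration measured by RP-HPLC before and after the run.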

EC50 [1] [nM]	ThT pH 4.0 lag time ([2]; Table 8) [h]	ThT pH 4.0 lag time ([2]; ThT fibrillation assay) [h]	ThT pH 4.0 lag time (h) ([2]; ThT fibrillation assay)	Structure (SMILES)
0.0385	>45	>45	>45	CC[C@H](C)[C@H](NC(=O)[C@H](CCCCNC(=O)COCCOCCNC(=O)COCCOCCNC(=O)CC[C@H](NC(=O)CCCCCCCCCCCCCCCCC(=O)O)C(=O)O)NC(=O)CNC(=O)[C@H](Cc1ccccc1)NC(=O)[C@H](CC(N)=O)NC(=O)[C@H](CC(N)=O)NC(=O)[C@H](CO)NC(=O)[C@H](CO)NC(=O)[C@H](Cc1c[nH]cn1)NC(=O)[C@H](Cc1c[nH]cn1)NC(=O)[C@H](CC(C)C)NC(=O)[C@H](Cc1ccccc1)NC(=O)[C@H](CCC(=O)O)NC(=O)[C@H](C)NC(=O)[C@H](CC(C)C)NC(=O)[C@H](CCCNC(=N)N)NC(=O)[C@H](CCC(N)=O)NC(=O)[C@@H](NC(=O)[C@H](C)NC(=O)[C@@H]1CSSC[C@H](NC(=O)[C@@H](N)CCCCN)C(=O)N[C@@H](CC(N)=O)C(=O)N[C@@H]([C@@H](C)O)C(=O)N[C@@H](C)C(=O)N[C@@H]([C@@H](C)O)C(=O)N1)[C@@H](C)O)C(=O)N[C@@H](CC(C)C)C(=O)N1CCC[C@H]1C(=O)N1CCC[C@H]1C(=O)N[C@H](C(=O)N[C@@H](CC(N)=O)C(=O)N[C@H](C(=O)NCC(=O)N[C@@H](CO)C(=O)N[C@@H](CC(N)=O)C(=O)N[C@H](C(=O)N[C@@H](Cc1ccc(O)cc1)C(N)=O)[C@@H](C)O)C(C)C)[C@@H](C)O [Example 73, N-epsilon25-[2-(2-{2-[2-(2-{2-[(S)-4-Carboxy-4-(17-carboxyheptadecanoylamino)butyrylamino]ethoxy}ethoxy)acetylamino]ethoxy}ethoxy)acetyl]-[Glu14,His17,Lys25]-pramlintide] (H-KCNTATCATQRLAEFLHHSSNNFGK([AEEA-AEEA-γGlu-C18 diacid])ILPPTNVGSNTY-NH2; disulfide 2-7 (inferred); N-terminus and C-terminus assumed)
0.182	–	>45	>45	CC[C@H](C)[C@H](NC(=O)[C@@H]1CCCN1C(=O)CNC(=O)[C@H](Cc1ccccc1)NC(=O)[C@H](CC(N)=O)NC(=O)[C@H](CC(N)=O)NC(=O)[C@H](CO)NC(=O)[C@H](CO)NC(=O)[C@H](Cc1c[nH]cn1)NC(=O)[C@H](Cc1c[nH]cn1)NC(=O)[C@H](CC(C)C)NC(=O)[C@H](Cc1ccccc1)NC(=O)[C@H](CCC(=O)O)NC(=O)[C@H](C)NC(=O)[C@H](CC(C)C)NC(=O)[C@H](CCCNC(=N)N)NC(=O)[C@H](CCC(N)=O)NC(=O)[C@@H](NC(=O)[C@H](C)NC(=O)[C@@H]1CSSC[C@H](NC(=O)[C@H](CCCCN)NC(=O)[C@H](Cc2c[nH]cn2)NC(=O)CC[C@H](NC(=O)CCCCCCCCCCCCCCCCCCC(=O)O)C(=O)O)C(=O)N[C@@H](CC(N)=O)C(=O)N[C@@H]([C@@H](C)O)C(=O)N[C@@H](C)C(=O)N[C@@H]([C@@H](C)O)C(=O)N1)[C@@H](C)O)C(=O)N[C@@H](CC(C)C)C(=O)N1CCC[C@H]1C(=O)N1CCC[C@H]1C(=O)N[C@H](C(=O)N[C@@H](CC(N)=O)C(=O)N[C@H](C(=O)NCC(=O)N[C@@H](CO)C(=O)N[C@@H](Cc1c[nH]cn1)C(=O)N[C@H](C(=O)N[C@@H](Cc1ccc(O)cc1)C(N)=O)[C@@H](C)O)C(C)C)[C@@H](C)O [Example 66, N-alpha-[(S)-4-Carboxy-4-(19-carboxynonadecanoylamino)butyryl]-His-[Glu14,His17,His35]-pramlintide] ({C20 diacid-γGlu}-HKCNTATCATQRLAEFLHHSSNNFGPILPPTNVGSHTY-NH2; disulfide 3-8 (inferred); C-terminus assumed)
0.0934	–	–	11	CC[C@H](C)[C@H](NC(=O)[C@@H]1CCCN1C(=O)CNC(=O)[C@H](Cc1ccccc1)NC(=O)[C@H](CC(N)=O)NC(=O)[C@H](CC(N)=O)NC(=O)[C@H](CO)NC(=O)[C@H](CO)NC(=O)[C@H](CCCNC(=N)N)NC(=O)[C@H](Cc1c[nH]cn1)NC(=O)[C@H](CC(C)C)NC(=O)[C@H](Cc1ccccc1)NC(=O)[C@H](CCC(=O)O)NC(=O)[C@H](C)NC(=O)[C@H](CC(C)C)NC(=O)[C@H](CCCNC(=N)N)NC(=O)[C@H](CCC(N)=O)NC(=O)[C@@H](NC(=O)[C@H](C)NC(=O)[C@@H]1CSSC[C@H](NC(=O)[C@H](Cc2c[nH]cn2)NC(=O)CC[C@H](NC(=O)CCCCCCCCCCCCCCCCCCC(=O)O)C(=O)O)C(=O)N[C@@H](CC(N)=O)C(=O)N[C@@H]([C@@H](C)O)C(=O)N[C@@H](C)C(=O)N[C@@H]([C@@H](C)O)C(=O)N1)[C@@H](C)O)C(=O)N[C@@H](CC(C)C)C(=O)N1CCC[C@H]1C(=O)N1CCC[C@H]1C(=O)N[C@H](C(=O)N[C@@H](CC(N)=O)C(=O)N[C@H](C(=O)NCC(=O)N[C@@H](CO)C(=O)N[C@@H](CC(N)=O)C(=O)N[C@H](C(=O)N[C@@H](Cc1ccc(O)cc1)C(N)=O)[C@@H](C)O)C(C)C)[C@@H](C)O [Example 1, N-alpha-[(S)-4-Carboxy-4-(19-carboxynonadecanoylamino)butyryl]-[His1,Glu14,His17,Arg18]-pramlintide] ({C20 diacid-γGlu}-HCNTATCATQRLAEFLHRSSNNFGPILPPTNVGSNTY-NH2; disulfide 2-7 (inferred))
0.192	–	–	1	CC[C@H](C)[C@H](NC(=O)[C@@H]1CCCN1C(=O)CNC(=O)[C@H](Cc1ccccc1)NC(=O)[C@H](CC(N)=O)NC(=O)[C@H](CC(N)=O)NC(=O)[C@H](CO)NC(=O)[C@H](CO)NC(=O)[C@H](Cc1c[nH]cn1)NC(=O)[C@H](Cc1c[nH]cn1)NC(=O)[C@H](CC(C)C)NC(=O)[C@H](Cc1ccccc1)NC(=O)[C@H](CCC(=O)O)NC(=O)[C@H](C)NC(=O)[C@H](CC(C)C)NC(=O)[C@H](CCCNC(=N)N)NC(=O)[C@H](CCC(N)=O)NC(=O)[C@@H](NC(=O)[C@H](C)NC(=O)[C@@H]1CSSC[C@H](NC(=O)[C@H](Cc2c[nH]cn2)NC(=O)[C@H](Cc2c[nH]cn2)NC(=O)[C@H](Cc2c[nH]cn2)NC(=O)CC[C@H](NC(=O)CCCCCCCCCCCCCCCCCCC(=O)O)C(=O)O)C(=O)N[C@@H](CC(N)=O)C(=O)N[C@@H]([C@@H](C)O)C(=O)N[C@@H](C)C(=O)N[C@@H]([C@@H](C)O)C(=O)N1)[C@@H](C)O)C(=O)N[C@@H](CC(C)C)C(=O)N1CCC[C@H]1C(=O)N1CCC[C@H]1C(=O)N[C@H](C(=O)N[C@@H](CC(N)=O)C(=O)N[C@H](C(=O)NCC(=O)N[C@@H](CO)C(=O)N[C@@H](CCCNC(=N)N)C(=O)N[C@H](C(=O)N[C@@H](Cc1ccc(O)cc1)C(N)=O)[C@@H](C)O)C(C)C)[C@@H](C)O [Example 21, N-alpha-[(S)-4-Carboxy-4-(19-carboxynonadecanoylamino)butyryl]-His-His-[His1,Glu14,His17,Arg35]-pramlintide] ({C20 diacid-γGlu}-HHHCNTATCATQRLAEFLHHSSNNFGPILPPTNVGSRTY-NH2; disulfide 4-9 (inferred))
